Patent publication US20110319603A1, “METHOD FOR FLU[…] PROTEIN” (OSAKA UNIVERSITY, priority 2009, published 2011)

Key:
PYP [1] = molecular target: T1, PYP (Halorhodospira halophila, UniProt P16113); assay: Reaction between PYP and FCTP, analyzed by SDS-PAGE (CBB-stained and fluorescent image); assay type: binding
T1 construct: His tag (with enterokinase cleavage site) (N, cleaved yes); made in house; host or cells: E. coli BL21 (DE3), pET-21b(+) (pET-PYP)
T1 sequence (P16113 1-125): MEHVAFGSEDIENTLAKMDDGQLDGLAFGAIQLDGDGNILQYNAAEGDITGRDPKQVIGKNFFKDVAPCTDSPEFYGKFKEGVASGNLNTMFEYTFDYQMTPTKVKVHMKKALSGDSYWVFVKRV
Method: In Tris buffer (20 mM Tris-HCl, 150 mM NaCl, 1 mM TCEP (pH 8.0)), 5 μM of PYP was reacted with 12.5 μM of compound FCTP at 37° C. for 24 hours. After completion of the reaction, the result was analyzed by SDS-PAGE (20% acrylamide separation gel). […] With reference to FIG. 1(b), similarly in the fluorescent image, fluorescence was observed.

[2] = test system: PYP-TM expressed on HEK293T cells; assay: Labeling reaction with CATP in cultured cell, PYP-TM (fluorescence microscopy); assay type: cell-based, Halorhodospira halophila; details: CATP 5 μM, 30 minutes
Method: (§1) A plasmid was prepared in which a gene MBP-PYP obtained by fusing a maltose binding protein (MBP) with a PYP was introduced into the multicloning site of pcDNA3.1, which was a mammalian expression vector. Furthermore, in order to express a PYP on the cell surface, a plasmid was prepared in which a gene PYP-TM obtained by fusing a PYP with the transmembrane domain of a platelet-derived growth factor receptor (PDGFR) was introduced into the multicloning site of pcDNA3.1, which was a mammalian expression vector. HEK293T cells were transfected with these plasmids by using lipofectamine 2000. After transfection with the plasmids, the HEK293T cells were allowed to stand at 37° C. for 36 hours and then washed with a phosphoric acid buffer (PBS). A culture medium containing CATP (5 μM) was added thereto, which then was allowed to stand for 30 minutes.

[3] = test system: MBP-PYP expressed in HEK293T cells; assay: Labeling reaction with CATP in cultured cell, MBP-PYP (fluorescence microscopy); assay type: cell-based, Halorhodospira halophila; details: CATP 5 μM, 30 minutes
Method: as §1

PYP [4] = molecular target: T1, PYP; assay: Reaction of compound FCTP with PYP in HEK293T cell lysate, SDS-PAGE; assay type: binding
Method: In a HEK293T cell lysate dissolved in Tris buffer (20 mM Tris-HCl, 150 mM NaCl, 1 mM TCEP (pH 8.0)), 5 μM of PYP was reacted with 50 μM of compound FCTP at 37° C. for 30 minutes in the presence or absence of 10 mM MESNa. After completion of the reaction, it was analyzed by SDS-PAGE (20% acrylamide separation gel). […] On the other hand, the fluorescent band on the high molecular weight side disappeared upon addition of MESNa (10 mM), which was a type of thiol compound. It was confirmed that an addition of a certain amount of free thiol allowed labeling to be carried out specifically in the cell lysate.

PYP [5] = molecular target: T1, PYP; assay: Fluorescent properties of FCTP (fluorescence and excitation spectra with and without PYP); details: 8 μM compound, Tris buffer pH 8.0, 37° C.
Method: In order to examine the fluorescent properties of compound FCTP bound to the PYP, Tris buffer (20 mM Tris-HCl, 150 mM NaCl, 1 mM TCEP (pH 8.0)), the fluorescence and excitation spectra were measured at 37° C.

[6] = test system: PYP-TM expressed on HEK293T cells; assay: Labeling reaction with FCTP in cultured cell (fluorescence microscopy); assay type: cell-based, Halorhodospira halophila; details: FCTP 20 μM, 30 minutes
Method: In order to express a PYP on the cell surface, a plasmid was prepared in which a gene PYP-TM obtained by fusing a PYP with the transmembrane domain of a platelet-derived growth factor receptor (PDGFR) was introduced into the multicloning site of pcDNA3.1, which is a mammalian expression vector. HEK293T cells were transfected with this plasmid by using lipofectamine 2000. After transfection with the plasmid, the HEK293T cells were allowed to stand at 37° C. for 36 hours and then washed with a phosphoric acid buffer (PBS). A culture medium containing FCTP (20 μM) was added thereto, which then was allowed to stand for 30 minutes. […] With the fluorescence microscope having an excitation wavelength of 488 nm, the cells were observed using a fluorescent filter of 510 to 550 nm.

Compound | thioester bond between the PYP and compound upon addition of DTT (PYP [1]; DTT (100 mM) added after labeling) | fluorescent labeling in cells where PYP-TM was not expressed [2] | fluorescent labeling in PYP-TM expressed cells ([2]; excitation 436 nm) | fluorescent labeling in cells in which MBP-PYP was not expressed [3] | fluorescent labeling in cells in which MBP-PYP was expressed ([3]; excitation 436 nm) | labeling of the PYP (slowly migrating band, fluorescence on gel) (PYP [1]; 5 μM PYP, 12.5 μM compound, Tris buffer pH 8.0, 37° C., 24 hours) | fluorescent labeling of PYP in cell lysate (PYP [4]; 5 μM PYP, 50 μM compound, 37° C., 30 minutes) | fluorescent band in the high molecular weight range (non-specific labeling) in cell lysate (PYP [4]; absence of MESNa) | fluorescent band on the high molecular weight side in cell lysate (PYP [4]; addition of MESNa (10 mM)) | fluorescence intensity of compound in the presence of PYP (PYP [5]; 5 μM PYP, time-dependent) | fluorescence intensity of compound alone (PYP [5]; no PYP, excitation at 500 nm) | fluorescent labeling in cells where PYP-TM was not expressed [6] | fluorescent labeling in PYP-TM expressed cells ([6]; excitation 488 nm)
[N-]=[N+]=NCCOCCOCCOCc1cc(O)cc2oc(=O)c(C(=O)Sc3ccccc3)cc12 [CATP] | hydrolyzed by a large excess of DTT | neither fluorescent labeling with FCTP nor that with CATP was observed | observed | not observed | observed | – | – | – | – | – | – | – | –
O=C(NCc1cn(COCCOCCOCc2cc(O)cc3oc(=O)c(C(=O)Sc4ccccc4)cc23)nn1)c1ccc(C(=O)O)c(-c2c3ccc(=O)cc-3oc3cc(O)ccc23)c1 [FCTP] | – | – | – | – | – | able to label the PYP | fluorescence was observed in the vicinity of the PYP band | another fluorescent band was observed in the high molecular weight range | disappeared | increased in the presence of the PYP with the passage of time | very weak | neither fluorescent labeling with FCTP nor that with CATP was observed | observed
